The test system of this test is BDF1 mice, colon carcinoma 38 sc, T/C %. Nature of the test: NCI In Vivo Anticancer Drug Screen. Data for tumor model Colon Carcinoma 38 (subcutaneous) in B6D2F1 (BDF1) mice. How it is done:
The antitumor activity of compounds was measured in mice bearing transplantable tumors. Survival or tumor size were measured and the results are expressed as the measurement made in the treated group (T) divided by the measurement made in the vehicle treated control group (C). The tumor model used in this assay is Colon Carcinoma 38 (subcutaneous) in B6D2F1 (BDF1) mice

[1] abbreviates: endpoint: median tumor weight (est.), dose: 12.5 mg/kg/injection, schedule: Q07DX002 (ip), vehicle: saline with Tween-80, higher = larger tumour.
[2] abbreviates: endpoint: median tumor weight (est.), dose: 50.0 mg/kg/injection, schedule: Q07DX002 (ip), vehicle: saline with Tween-80, higher = larger tumour.
The mark [3] stands for this setting: endpoint: median tumor weight (est.), dose: 100.0 mg/kg/injection, schedule: Q07DX002 (ip), vehicle: saline with Tween-80, higher = larger tumour.
The mark [4] stands for this setting: endpoint: median tumor weight (est.), dose: 200.0 mg/kg/injection, schedule: Q07DX002 (ip), vehicle: saline with Tween-80, higher = larger tumour.
Where [5] appears, read: endpoint: median tumor weight (est.), dose: 25.0 mg/kg/injection, schedule: Q07DX002 (ip), vehicle: saline, higher = larger tumour.
[6] abbreviates: endpoint: median tumor weight (est.), dose: 25.0 mg/kg/injection, schedule: Q07DX002 (ip), vehicle: saline with Tween-80, higher = larger tumour.
Setting [7] is: endpoint: median tumor weight (est.), dose: 400.0 mg/kg/injection, schedule: Q07DX002 (ip), vehicle: saline with Tween-80, higher = larger tumour.
The mark [8] stands for this setting: endpoint: median tumor weight (est.), dose: 32.0 mg/kg/injection, schedule: Q07DX002 (ip), vehicle: saline, higher = larger tumour.
[9] abbreviates: endpoint: median tumor weight (est.), dose: 64.0 mg/kg/injection, schedule: Q07DX002 (ip), vehicle: saline, higher = larger tumour.
The mark [10] stands for this setting: endpoint: median tumor weight (est.), dose: 128.0 mg/kg/injection, schedule: Q07DX002 (ip), vehicle: saline, higher = larger tumour.
[11] abbreviates: endpoint: median tumor weight (est.), dose: 4.0 mg/kg/injection, schedule: Q07DX002 (ip), vehicle: saline, higher = larger tumour.

Structures are written as SMILES. “And” between values parts separate entries of the source, which are not always exact repeats. Equal entries are not always repeated. Inconclusive results are not listed.

For the compound `CCC1CN2C(=N1)c1ccccc1-c1cc(Cl)ccc12` (stereo unspecified), the T/C (endpoint: median tumor weight (est.), dose: 3.13 mg/kg/injection, schedule: Q07DX003 (ip), vehicle: suspension in saline, higher = larger tumour) is 83 % of control; the T/C (endpoint: median tumor weight (est.), dose: 6.25 mg/kg/injection, schedule: Q07DX003 (ip), vehicle: suspension in saline, higher = larger tumour) was 93 % of control; the T/C (endpoint: median tumor weight (est.), dose: 12.5 mg/kg/injection, schedule: Q07DX003 (ip), vehicle: suspension in saline, higher = larger tumour) is 118 % of control.
Take `COc1cccc2c1C(=O)c1c(O)c3c(c(O)c1C2=O)C[C@@](O)(C(C)=O)C[C@@H]3OC1CC(N(Cc2ccccc2)Cc2ccccc2)C(O)C(C)O1` (stereo partly specified): the T/C (endpoint: median survival time, dose: 43.0 mg/kg/injection, schedule: Q07DX003 (sc), vehicle: saline with Tween-80, higher = longer survival) was 152 % of control; the T/C (endpoint: median survival time, dose: 69.0 mg/kg/injection, schedule: Q07DX003 (sc), vehicle: saline with Tween-80, higher = longer survival) was 170 % of control; the T/C (endpoint: median survival time, dose: 112.0 mg/kg/injection, schedule: Q07DX003 (sc), vehicle: saline with Tween-80, higher = longer survival) is 220 % of control; the T/C (endpoint: median survival time, dose: 180.0 mg/kg/injection, schedule: Q07DX003 (sc), vehicle: saline with Tween-80, higher = longer survival) was 254 % of control; the T/C (endpoint: median tumor weight (est.), dose: 6.75 mg/kg/injection, schedule: Q07DX002 (ip), vehicle: distilled water + Tween-80, higher = larger tumour) was 108 % of control; the T/C (endpoint: median tumor weight (est.), dose: 13.5 mg/kg/injection, schedule: Q07DX002 (ip), vehicle: distilled water + Tween-80, higher = larger tumour) was 57 % of control. Besides, the T/C reads like this: (endpoint: median tumor weight (est.), dose: 27.0 mg/kg/injection, schedule: Q07DX002 (ip), vehicle: distilled water + Tween-80, higher = larger tumour) 13 % of control; (endpoint: median tumor weight (est.), dose: 27.0 mg/kg/injection, schedule: Q07DX002 (ip), vehicle: saline with Tween-80, higher = larger tumour) 39 % of control and 50 % of control; (endpoint: median tumor weight (est.), dose: 54.0 mg/kg/injection, schedule: Q07DX002 (ip), vehicle: saline with Tween-80, higher = larger tumour) 8 % of control; (endpoint: median tumor weight (est.), dose: 108.0 mg/kg/injection, schedule: Q07DX002 (ip), vehicle: saline with Tween-80, higher = larger tumour) 3 % of control.
On to `CCCCCCCCCCCCCCCCCC(=O)Nc1ccn(C2OC(CO)C(O)C2O)c(=O)n1` (stereo unspecified), for which the T/C is 99 % of control under setting [1]; 35 % of control and 59 % of control under setting [2]; 25 % of control under setting [3]; 4 % of control under setting [4].
As for `CCCCCCCC(=O)OCC(=O)[C@]1(O)Cc2c(O)c3c(c(O)c2[C@@H](OC2CC(N)C(O)C(C)O2)C1)C(=O)c1c(OC)cccc1C3=O` (stereo partly specified), the T/C by setting is: (endpoint: median tumor weight (est.), dose: 2.0 mg/kg/injection, schedule: Q07DX002 (ip), vehicle: suspension in saline, higher = larger tumour) 75 % of control; (endpoint: median tumor weight (est.), dose: 4.0 mg/kg/injection, schedule: Q07DX002 (ip), vehicle: suspension in saline, higher = larger tumour) 70 % of control; (endpoint: median tumor weight (est.), dose: 8.0 mg/kg/injection, schedule: Q07DX002 (ip), vehicle: suspension in saline, higher = larger tumour) 37 % of control.
Turning to `C1CNCOC1`, the T/C is 108 % of control under setting [5] and 115 % of control (endpoint: median tumor weight (est.), dose: 100.0 mg/kg/injection, schedule: Q07DX002 (ip), vehicle: saline, higher = larger tumour).
For `O=c1c(O)c(-c2cc(O)c(O)c(O)c2)oc2cc(O)cc(O)c12`, the T/C (endpoint: median tumor weight (est.), dose: 6.25 mg/kg/injection, schedule: Q07DX002 (ip), vehicle: other, higher = larger tumour) was 75 % of control; the T/C (endpoint: median tumor weight (est.), dose: 12.5 mg/kg/injection, schedule: Q07DX002 (ip), vehicle: other, higher = larger tumour) is 87 % of control; the T/C under setting [1] was 152 % of control and 172 % of control; the T/C (endpoint: median tumor weight (est.), dose: 25.0 mg/kg/injection, schedule: Q07DX002 (ip), vehicle: other, higher = larger tumour) is 73 % of control; the T/C under setting [6] is 113 % of control and 107 % of control; the T/C (endpoint: median tumor weight (est.), dose: 50.0 mg/kg/injection, schedule: Q07DX002 (ip), vehicle: other, higher = larger tumour) was 96 % of control. In addition, the T/C is, setting by setting: under setting [2], 120 % of control and 107 % of control; (endpoint: median tumor weight (est.), dose: 100.0 mg/kg/injection, schedule: Q07DX002 (ip), vehicle: other, higher = larger tumour) 65 % of control; under setting [3], 161 % of control and 214 % of control; (endpoint: median tumor weight (est.), dose: 200.0 mg/kg/injection, schedule: Q07DX002 (ip), vehicle: other, higher = larger tumour) 98 % of control; under setting [4], 187 % of control; (endpoint: median tumor weight (est.), dose: 400.0 mg/kg/injection, schedule: Q07DX002 (ip), vehicle: other, higher = larger tumour) 77 % of control. Also, the T/C under setting [7] is 116 % of control and 100 % of control.
On to `COc1cc(Cl)ccc1C`, for which the T/C by setting is: under setting [1], 99 % of control; under setting [6], 71 % of control; under setting [2], 68 % of control; under setting [3], 82 % of control; under setting [4], 89 % of control; under setting [7], 89 % of control.
`Cc1cc2cc3cc(C)c(N)cc3nc2cc1N`: the T/C reads like this: (endpoint: median tumor weight (est.), dose: 6.25 mg/kg/injection, schedule: Q07DX002 (ip), vehicle: saline with Tween-80, higher = larger tumour) 95 % of control; under setting [1], 109 % of control; under setting [2], 54 % of control; under setting [3], 89 % of control.
Turning to `NNC(=O)c1ccncc1`, the T/C by setting is: under setting [8], 118 % of control; (endpoint: median tumor weight (est.), dose: 36.0 mg/kg/injection, schedule: Q07DX002 (ip), vehicle: saline, higher = larger tumour) 77 % of control and 98 % of control; under setting [9], 104 % of control; (endpoint: median tumor weight (est.), dose: 72.0 mg/kg/injection, schedule: Q07DX002 (ip), vehicle: saline, higher = larger tumour) 75 % of control and 95 % of control; under setting [10], 120 % of control; (endpoint: median tumor weight (est.), dose: 144.0 mg/kg/injection, schedule: Q07DX002 (ip), vehicle: saline, higher = larger tumour) 120 % of control.
As for `CC[C@H](CC[C@@H](C)C1CC[C@H]2[C@@H]3CC=C4C[C@@H](OP(=O)(N5CC5)N5CC5)CC[C@]4(C)[C@H]3CC[C@]12C)C(C)C` (stereo partly specified), the T/C by setting is: under setting [2], 95 % of control; under setting [4], 79 % of control; under setting [7], 92 % of control.
Regarding `[Cl][Mn][Cl]`, the T/C (endpoint: median tumor weight (est.), dose: 3.0 mg/kg/injection, schedule: Q07DX002 (ip), vehicle: saline, higher = larger tumour) is 118 % of control; the T/C under setting [11] is 97 % of control; the T/C (endpoint: median tumor weight (est.), dose: 6.0 mg/kg/injection, schedule: Q07DX002 (ip), vehicle: saline, higher = larger tumour) was 92 % of control; the T/C (endpoint: median tumor weight (est.), dose: 8.0 mg/kg/injection, schedule: Q07DX002 (ip), vehicle: saline, higher = larger tumour) is 81 % of control; the T/C (endpoint: median tumor weight (est.), dose: 12.0 mg/kg/injection, schedule: Q07DX002 (ip), vehicle: saline, higher = larger tumour) is 119 % of control; the T/C under setting [8] was 95 % of control and 96 % of control. Moreover, the T/C was 119 % of control (endpoint: median tumor weight (est.), dose: 48.0 mg/kg/injection, schedule: Q07DX002 (ip), vehicle: saline, higher = larger tumour); 75 % of control under setting [9]; 115 % of control (endpoint: median tumor weight (est.), dose: 96.0 mg/kg/injection, schedule: Q07DX002 (ip), vehicle: saline, higher = larger tumour); 78 % of control under setting [10].
Take `CSCS(=O)C[C@H](CO)NC(=O)/C=C/c1c(C)[nH]c(=O)[nH]c1=O` (stereo partly specified): the T/C by setting is: (endpoint: median tumor weight (est.), dose: 0.25 mg/kg/injection, schedule: Q07DX002 (ip), vehicle: saline, higher = larger tumour) 110 % of control and 86 % of control; (endpoint: median tumor weight (est.), dose: 2.0 mg/kg/injection, schedule: Q07DX002 (ip), vehicle: saline, higher = larger tumour) 105 % of control; under setting [11], 62 % of control and 74 % of control.
On to `CCOC(=O)NC1=C(N2CC2)C(=O)C(NC(=O)OCC)=C(N2CC2)C1=O`, for which the T/C reads like this: (endpoint: median tumor weight (est.), dose: 0.78 mg/kg/injection, schedule: Q07DX002 (ip), vehicle: saline, higher = larger tumour) 98 % of control; (endpoint: median tumor weight (est.), dose: 0.78 mg/kg/injection, schedule: Q07DX002 (ip), vehicle: suspension in saline, higher = larger tumour) 102 % of control; (endpoint: median tumor weight (est.), dose: 1.56 mg/kg/injection, schedule: Q07DX002 (ip), vehicle: saline, higher = larger tumour) 94 % of control; (endpoint: median tumor weight (est.), dose: 1.56 mg/kg/injection, schedule: Q07DX002 (ip), vehicle: suspension in saline, higher = larger tumour) 95 % of control; (endpoint: median tumor weight (est.), dose: 3.13 mg/kg/injection, schedule: Q07DX002 (ip), vehicle: suspension in saline, higher = larger tumour) 95 % of control; (endpoint: median tumor weight (est.), dose: 6.25 mg/kg/injection, schedule: Q07DX002 (ip), vehicle: saline, higher = larger tumour) 77 % of control. Besides, the T/C is, setting by setting: (endpoint: median tumor weight (est.), dose: 6.25 mg/kg/injection, schedule: Q07DX002 (ip), vehicle: suspension in saline, higher = larger tumour) 85 % of control; (endpoint: median tumor weight (est.), dose: 12.5 mg/kg/injection, schedule: Q07DX002 (ip), vehicle: saline, higher = larger tumour) 69 % of control; under setting [5], 12 % of control; (endpoint: median tumor weight (est.), dose: 25.0 mg/kg/injection, schedule: Q07DX003 (ip), vehicle: saline, higher = larger tumour) 32 % of control.
`O=S(=O)(CCl)OCCCl`: the T/C under setting [1] was 103 % of control, the T/C under setting [6] was 111 % of control, the T/C under setting [2] was 58 % of control and the T/C under setting [3] was 55 % of control.
